The values below come from patent publication US20240108559A1, “TOPICAL COMPOSITIONS CONTAINING SYNTHETIC ESTERS OF SINAPINIC ACID AND METHODS FOR TREATING KERATIN SURFACES” (ELC MANAGEMENT LLC, priority 2017, published 2024).

Data set [1] in a line: UV absorbance peak stability over time and temperature (UV visible spectroscopy). The following applies: 1.4 and 14 ppm in 50/50 water and butylene glycol, time 0, week 1, 2, 4, 25°, 40°, 50° C., FIG. 1, FIG. 2. The data set is classed as physicochemical. As to the method: Sinapoyl malate and CAPE were evaluated for UV absorption. 50 and 100 ppm of each compound was dissolved in water and a second sample set of isopropanol. Additional samples of sinapyl malate and CAPE were prepared by dissolving 0.025% and 0.05% of each ingredient in a 50/50 mixture of water and butylene glycol. Further dilution to obtain a concentration of 1.4 ppm and 14 ppm was performed.
The samples were tested for UV absorption across the UV range by measuring with an Agilent 8453 UV visible spectroscopy system at wavelengths ranging across 200 to 450 nm at time 0, week 1, week 2, and week 4. The term “NA” means that a previously observed absorbance peak was no longer visible. The term “peak” means the two highest absorbance peaks in the UV spectrum. The term “valley” means the two lowest point between the absorbance peaks. In the case where there is only one peak or valley it means that the other, previously observed peak or valley was deteriorated at the time and temperature of the stability study. In the case where all peaks and valleys are indicated “NA” it means that the sample deteriorated entirely and no longer absorbed in the UV range at all.

Where a name gives a salt, the structure may show the parent alone.

Turning to `COc1cc(/C=C/C(=O)OC(CC(=O)O)C(=O)O)cc(OC)c1O` (stereo not drawn) [Sinapoyl malate], the “stability of UV absorbance peaks over time and temperature” value in data set [1] is “more stable over time and temperature”.

As to `O=C(/C=C/c1ccc(O)c(O)c1)OCCc1ccccc1` [CAPE, reference compound], the “stability of UV absorbance peaks over time and temperature” value in data set [1] is “much less stability over time and temperature”.

Regarding `COc1cc(/C=C/C(=O)OC(CC(=O)O)C(=O)O)cc(OC)c1O` (stereo not drawn) (as salt: malate) [Sinapoyl malate], the melting point lay within 55 to 65 °C.
